Format in all cases: cell-based
Experiment [1] concerns the target GluN1/N2A (Rattus norvegicus, UniProt P35439). The experiment can be described thus: Two-electrode voltage-clamp recordings, Xenopus oocytes expressing GluN1/N2A. The conditions noted are these: co-applied with 100 μM glutamate and 0.5 μM glycine. For orientation: In two-electrode clamp one electrode senses voltage and the other passes current.
Experiment [2] has as its target GluN1/N2A (Rattus norvegicus, UniProt P35439+Q00959). The experiment is described as above.
The next experiment has as its target GluN1(F484A/T518L)/N3A (Rattus norvegicus, UniProt Q9R1M7). The experiment can be described thus: Two-electrode voltage-clamp recordings, Xenopus oocytes expressing GluN1. The conditions noted are these: for voltage dependence of inhibition: current-voltage relationship, inhibition at −60 mV and +30 mV; for Hill coefficient (nH): inhibition.
For the next experiment, the target named is GluN1(F484A/T518L)/N3B (Rattus norvegicus, UniProt Q8VHN2). The description is as above. The note with it: for Hill coefficient (nH): inhibition.
A further experiment deals with GluN1(F484A)/N3A (Rattus norvegicus, UniProt P35439+Q9R1M7, F484A). Described as above. The note with it: for Hill coefficient (nH): inhibition.
A further experiment deals with GluN1(T518L)/N3A (Rattus norvegicus, UniProt P35439+Q9R1M7, T518L). The experiment is described as above. The conditions noted are these: for Hill coefficient (nH): inhibition.
The target of experiment [3] is GluN1/N2B (Rattus norvegicus, UniProt P35439+Q00960). The experiment can be described thus: Two-electrode voltage-clamp recordings, Xenopus oocytes expressing GluN1/N2B.
Experiment [4] addresses GluN1/N2C (Rattus norvegicus, UniProt P35439). Kind of experiment: Two-electrode voltage-clamp recordings, Xenopus oocytes expressing GluN1/N2C. The conditions noted are these: co-applied with 100 μM glutamate and 0.5 μM glycine.
In experiment [5] the target is GluN1/N2C (Rattus norvegicus, UniProt P35439+Q00961). The description is as above.
Experiment [6] has as its target GluN1/N2D (Rattus norvegicus, UniProt P35439). The experiment can be described thus: Two-electrode voltage-clamp recordings, Xenopus oocytes expressing GluN1/N2D. The note with it: co-applied with 100 μM glutamate and 0.5 μM glycine.
Experiment [7] concerns the target GluN1/N2D (Rattus norvegicus, UniProt P35439+Q62645). The experiment is described as above.
Experiment [8] addresses wild-type GluN1/N3B receptors (Rattus norvegicus, UniProt P35439+Q8VHN2).
The target in another experiment is GluA1 (Rattus norvegicus, UniProt P19490). The experiment can be described thus: Two-electrode voltage-clamp recordings, Xenopus oocytes expressing GluA1.
In a further experiment the target is GluK2 (Rattus norvegicus, UniProt P42260). Kind of experiment: Two-electrode voltage-clamp recordings, Xenopus oocytes expressing GluK2.
Experiment [9] has as its target GluN1/N2B (Rattus norvegicus, UniProt P35439). The experiment can be described thus: Two-electrode voltage-clamp recordings, Xenopus oocytes expressing GluN1/N2B. The conditions noted are these: co-applied with 100 μM glutamate and 0.5 μM glycine.
The mark [10] stands for this setting: IC50, co-applied with 100 μM glycine, N.E., no significant effect at 300 μM.
[11] abbreviates: IC50, co-applied with 100 μM glutamate and 0.5 μM glycine.
The mark [12] stands for this setting: read-out: inhibition of current responses to 10 μM glycine.
Setting [13] is: co-applied with 100 μM glycine, N.E., no significant effect at 300 μM.

Like-named read-outs stand apart in the source and are kept apart here.

GluN1(F484A)/N3A, sequence (Q9R1M7 24-1115 isoform Q9R1M7-2 limits assumed, stated change not applied, other chains not shown): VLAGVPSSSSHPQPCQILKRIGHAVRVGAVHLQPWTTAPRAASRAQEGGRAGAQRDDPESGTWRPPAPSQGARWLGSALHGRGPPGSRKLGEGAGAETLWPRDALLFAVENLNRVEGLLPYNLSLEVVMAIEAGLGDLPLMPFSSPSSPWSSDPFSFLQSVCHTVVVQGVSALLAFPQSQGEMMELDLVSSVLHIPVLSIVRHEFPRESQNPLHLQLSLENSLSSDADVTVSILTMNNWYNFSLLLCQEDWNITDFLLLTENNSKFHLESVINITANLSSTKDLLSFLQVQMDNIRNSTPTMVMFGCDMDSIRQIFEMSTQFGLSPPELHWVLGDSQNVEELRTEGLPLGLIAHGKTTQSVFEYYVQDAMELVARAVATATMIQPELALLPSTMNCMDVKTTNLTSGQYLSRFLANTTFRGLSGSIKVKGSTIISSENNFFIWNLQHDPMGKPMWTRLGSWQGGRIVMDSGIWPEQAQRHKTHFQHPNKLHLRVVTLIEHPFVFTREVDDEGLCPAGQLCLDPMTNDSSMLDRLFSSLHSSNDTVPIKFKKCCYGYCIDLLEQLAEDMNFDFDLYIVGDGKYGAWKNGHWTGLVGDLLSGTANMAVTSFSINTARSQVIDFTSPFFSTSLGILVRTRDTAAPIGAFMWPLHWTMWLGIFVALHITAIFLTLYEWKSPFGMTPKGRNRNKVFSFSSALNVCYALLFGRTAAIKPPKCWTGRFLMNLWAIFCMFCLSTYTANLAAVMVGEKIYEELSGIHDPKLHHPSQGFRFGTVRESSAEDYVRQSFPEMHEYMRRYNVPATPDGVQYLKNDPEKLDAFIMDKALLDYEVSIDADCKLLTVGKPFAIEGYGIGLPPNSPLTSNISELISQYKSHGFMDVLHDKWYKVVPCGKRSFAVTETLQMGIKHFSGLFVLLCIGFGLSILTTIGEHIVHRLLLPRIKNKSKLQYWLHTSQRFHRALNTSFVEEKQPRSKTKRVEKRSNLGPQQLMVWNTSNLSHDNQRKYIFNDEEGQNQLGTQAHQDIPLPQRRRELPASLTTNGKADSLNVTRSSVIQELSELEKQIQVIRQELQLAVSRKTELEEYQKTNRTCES
GluN1(F484A/T518L)/N3A, sequence (Q9R1M7 24-1115 isoform Q9R1M7-2, other chains not shown): as the sequence (Q9R1M7 24-1115 isoform Q9R1M7-2 limits assumed, stated change not applied, other chains not shown) above
GluN1(T518L)/N3A, sequence (Q9R1M7 24-1115 isoform Q9R1M7-2 limits assumed, stated change not applied, other chains not shown): as above
GluN1(F484A/T518L)/N3B, sequence (Q8VHN2 25-1002, stated change not applied, other chains not shown): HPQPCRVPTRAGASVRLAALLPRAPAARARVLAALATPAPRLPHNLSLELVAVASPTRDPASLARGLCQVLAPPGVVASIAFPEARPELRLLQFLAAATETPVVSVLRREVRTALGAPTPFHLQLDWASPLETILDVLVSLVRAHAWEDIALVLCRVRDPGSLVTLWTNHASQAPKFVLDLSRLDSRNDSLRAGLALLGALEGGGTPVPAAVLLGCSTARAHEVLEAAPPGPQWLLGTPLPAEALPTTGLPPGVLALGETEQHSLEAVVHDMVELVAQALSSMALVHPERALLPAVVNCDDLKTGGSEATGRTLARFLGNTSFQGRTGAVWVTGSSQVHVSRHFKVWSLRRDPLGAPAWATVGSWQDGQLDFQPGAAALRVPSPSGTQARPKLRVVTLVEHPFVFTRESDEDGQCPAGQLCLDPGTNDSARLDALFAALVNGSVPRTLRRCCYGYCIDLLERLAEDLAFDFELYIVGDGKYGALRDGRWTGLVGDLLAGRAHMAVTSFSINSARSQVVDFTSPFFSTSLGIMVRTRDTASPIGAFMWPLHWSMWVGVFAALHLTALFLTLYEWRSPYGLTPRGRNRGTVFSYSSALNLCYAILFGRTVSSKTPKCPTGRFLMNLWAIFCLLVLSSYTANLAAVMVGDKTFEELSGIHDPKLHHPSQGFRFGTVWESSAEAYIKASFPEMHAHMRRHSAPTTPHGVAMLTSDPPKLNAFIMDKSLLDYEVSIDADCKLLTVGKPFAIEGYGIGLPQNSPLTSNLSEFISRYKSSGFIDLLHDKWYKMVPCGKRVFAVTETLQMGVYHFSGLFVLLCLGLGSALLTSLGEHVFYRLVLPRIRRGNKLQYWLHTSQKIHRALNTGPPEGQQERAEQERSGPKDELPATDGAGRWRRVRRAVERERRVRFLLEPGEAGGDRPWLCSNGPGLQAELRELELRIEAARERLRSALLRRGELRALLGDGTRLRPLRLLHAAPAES
wild-type GluN1/N3B receptors, sequence (Q8VHN2 25-1002, other chains not shown): as the sequence (Q8VHN2 25-1002, stated change not applied, other chains not shown) above
GluA1, sequence (P19490 19-907): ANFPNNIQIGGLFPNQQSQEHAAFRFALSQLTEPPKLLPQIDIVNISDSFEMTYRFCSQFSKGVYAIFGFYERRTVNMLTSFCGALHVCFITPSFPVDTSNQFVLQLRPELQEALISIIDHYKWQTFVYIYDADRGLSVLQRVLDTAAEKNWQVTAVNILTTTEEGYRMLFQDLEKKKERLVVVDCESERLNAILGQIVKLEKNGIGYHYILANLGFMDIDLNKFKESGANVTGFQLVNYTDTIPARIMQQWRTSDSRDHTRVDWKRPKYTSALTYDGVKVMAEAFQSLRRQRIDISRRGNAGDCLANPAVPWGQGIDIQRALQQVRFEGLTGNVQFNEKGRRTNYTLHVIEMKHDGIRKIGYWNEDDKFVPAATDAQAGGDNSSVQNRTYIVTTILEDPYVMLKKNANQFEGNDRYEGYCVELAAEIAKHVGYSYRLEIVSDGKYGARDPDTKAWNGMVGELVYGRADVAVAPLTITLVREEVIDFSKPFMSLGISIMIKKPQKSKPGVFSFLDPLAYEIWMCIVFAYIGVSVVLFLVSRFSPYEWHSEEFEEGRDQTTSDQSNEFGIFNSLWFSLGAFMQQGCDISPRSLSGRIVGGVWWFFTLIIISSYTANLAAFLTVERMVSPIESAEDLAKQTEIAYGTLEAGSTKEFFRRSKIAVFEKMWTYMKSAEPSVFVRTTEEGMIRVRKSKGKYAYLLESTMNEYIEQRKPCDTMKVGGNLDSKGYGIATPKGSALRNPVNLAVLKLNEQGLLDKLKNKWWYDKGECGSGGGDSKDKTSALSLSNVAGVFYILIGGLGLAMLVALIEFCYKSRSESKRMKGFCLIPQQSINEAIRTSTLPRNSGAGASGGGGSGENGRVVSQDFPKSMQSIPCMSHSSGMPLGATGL
GluK2, sequence (P42260 32-908): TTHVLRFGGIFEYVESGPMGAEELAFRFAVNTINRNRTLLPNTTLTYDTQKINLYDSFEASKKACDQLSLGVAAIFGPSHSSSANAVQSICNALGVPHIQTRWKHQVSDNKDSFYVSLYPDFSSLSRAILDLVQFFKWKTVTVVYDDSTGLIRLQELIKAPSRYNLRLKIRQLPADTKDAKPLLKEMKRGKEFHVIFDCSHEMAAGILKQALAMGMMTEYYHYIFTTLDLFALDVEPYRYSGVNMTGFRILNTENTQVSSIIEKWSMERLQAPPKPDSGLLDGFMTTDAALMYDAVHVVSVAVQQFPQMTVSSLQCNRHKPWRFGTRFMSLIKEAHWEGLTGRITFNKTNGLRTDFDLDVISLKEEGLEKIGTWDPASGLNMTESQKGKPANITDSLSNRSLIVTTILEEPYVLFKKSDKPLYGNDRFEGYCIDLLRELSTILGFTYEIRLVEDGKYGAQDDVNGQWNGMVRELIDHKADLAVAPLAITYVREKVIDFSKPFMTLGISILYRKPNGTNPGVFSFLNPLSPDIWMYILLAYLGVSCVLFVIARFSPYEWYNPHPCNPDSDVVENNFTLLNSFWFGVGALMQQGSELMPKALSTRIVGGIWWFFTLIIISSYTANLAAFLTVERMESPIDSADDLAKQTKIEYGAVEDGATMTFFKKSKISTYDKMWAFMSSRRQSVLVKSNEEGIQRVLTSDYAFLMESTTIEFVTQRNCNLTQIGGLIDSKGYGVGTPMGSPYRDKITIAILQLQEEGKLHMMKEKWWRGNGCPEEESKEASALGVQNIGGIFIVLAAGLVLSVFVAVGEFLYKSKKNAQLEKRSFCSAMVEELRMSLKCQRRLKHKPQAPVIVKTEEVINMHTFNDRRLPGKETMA

As usually defined, the IC50 is the concentration that inhibits the measured activity by half. For orientation: inhibition means the percentage by which the read-out fell short of the control. Regarding `O=C(O)c1cc(C(=O)c2ccc(Cl)cc2Cl)c[nH]1` [TK30, 4-(2,4-dichlorobenzoyl)-1H-pyrrole-2-carboxylic acid], the “Hill coefficient (nH)” value was −1.39 on GluN1/N2A [1] (inhibition); −1.44 on GluN1(F484A/T518L)/N3A (co-applied with 100 μM glycine); −1.37 at GluN1(F484A/T518L)/N3B (co-applied with 100 μM glycine); −1.16 on GluN1(F484A)/N3A (co-applied with 100 μM glycine); −1.50 on GluN1(T518L)/N3A (co-applied with 50 μM glycine); −1.77 on GluN1/N2C [4] (inhibition). Besides, the “Hill coefficient (nH)” value at GluN1/N2D [6] (inhibition) is given as −1.83. The concentration for half-maximal inhibition (IC50) at GluN1/N2A [2] was 270 µM; on GluN1(F484A/T518L)/N3A (setting [10]) it was 14 µM; on GluN1(F484A/T518L)/N3A (pIC50 ± S.E.M., co-applied with 100 μM glycine) it was 15.8 µM; against GluN1(F484A/T518L)/N3B it was 7.4 µM; against GluN1(F484A)/N3A it was 34 µM; against GluN1(T518L)/N3A it was 9.8 µM. The IC50 on GluN1/N2B [3] was above 300 µM; on GluN1/N2C [5] it was 120 µM; at GluN1/N2D [7] (setting [11]), 90 µM; at GluN1/N2D [7] (pIC50 ± S.E.M., co-applied with 100 μM glutamate and 0.5 μM glycine), 79.4 µM. Also, the “voltage dependence of inhibition” value at GluN1(F484A/T518L)/N3A was “voltage-independent”. The Maximal inhibition on GluN1(F484A)/N3A (co-applied with 100 μM glycine) and on GluN1(T518L)/N3A (co-applied with 50 μM glycine) was 100% throughout. The inhibition at 30 µM in experiment [8] (setting [12]) stood at 70 ± 4%.

As usually defined, the Ki is a measure of affinity in units of concentration, obtained from inhibition or displacement. Low readings indicate a stronger hold on the target, high ones a looser hold on the target. For `O=c1[nH]c2nonc2nc1O` [TK80, 6-hydroxy-[1,2,5]oxadiazolo[3,4-b]pyrazin-5(4H)-one], the half-maximal inhibitory concentration (IC50) against GluN1/N2A [2] is above 300 µM; at GluN1(F484A/T518L)/N3A (setting [10]) it was above 300 µM; at GluN1(F484A/T518L)/N3A (setting [13]), “N.E”; against GluN1(F484A/T518L)/N3B, 79 µM; on GluN1/N2B [3] it was above 300 µM; on GluN1/N2C [5], above 300 µM. For the same molecule, the IC50 at GluN1/N2D [7] (setting [11]), on GluA1 and on GluK2 was above 300 µM in each case. Further, the Ki at GluN1/N2A [2] is above 290 µM; at GluN1(F484A/T518L)/N3B, 39 µM; at GluN1/N2B [3], above 260 µM; on GluN1/N2C [5], above 260 µM; at GluN1/N2D [7], above 210 µM. Besides, the “voltage dependence of inhibition” value on GluN1(F484A/T518L)/N3B (current-voltage relationship, inhibition at −60 mV and +30 mV) is reported as “voltage-independent”. For the same molecule, at GluN1(F484A/T518L)/N3B (co-applied with 100 μM glycine), the “Hill coefficient (nH)” value is on record as −1.79. Moreover, in experiment [8] (setting [12]), the inhibition at 100 µM turned out to be 65 ± 4.3%.

Consider `O=C(O)c1cc(Nc2nc(-c3cccnc3)cs2)ccc1O` [TK13], for which the IC50 was above 300 µM against GluN1/N2A [1]; 67 µM on GluN1(F484A/T518L)/N3A (setting [13]); 49 µM against GluN1(F484A/T518L)/N3B (co-applied with 100 μM glycine); 93 µM on GluN1(F484A)/N3A (co-applied with 100 μM glycine); 100 µM against GluN1(T518L)/N3A (co-applied with 50 μM glycine); above 300 µM against GluN1/N2B [9]. In addition, the IC50 at GluN1/N2C [4] is above 300 µM; against GluN1/N2D [6] it was above 300 µM; at GluA1 (co-applied with 30 μM glutamate) it was above 300 µM; on GluK2 (co-applied with 30 μM glutamate, oocytes incubated 5 min in 10 μM concanavalin A), above 300 µM. For the same molecule, the “pIC50 ± S.E.M.” value at GluN1(F484A/T518L)/N3A (co-applied with 100 μM glycine) was 4.2 ± 0.06; on GluN1(F484A/T518L)/N3B (co-applied with 100 μM glycine), 4.3 ± 0.03; against GluN1(F484A)/N3A (co-applied with 100 μM glycine), 4.0 ± 0.03; at GluN1(T518L)/N3A (co-applied with 50 μM glycine), 4.0 ± 0.05. Moreover, on GluN1(F484A/T518L)/N3A, the “voltage dependence of inhibition” value was “voltage-independent”. Moreover, the “Hill coefficient (nH)” value is −1.04 at GluN1(F484A/T518L)/N3A (co-applied with 100 μM glycine), −0.77 on GluN1(F484A/T518L)/N3B (co-applied with 100 μM glycine), −1.04 at GluN1(F484A)/N3A (co-applied with 100 μM glycine) and −1.02 on GluN1(T518L)/N3A (co-applied with 50 μM glycine). The Maximal inhibition on GluN1(F484A)/N3A (co-applied with 100 μM glycine) and on GluN1(T518L)/N3A (co-applied with 50 μM glycine) was 100% each time. In addition, the “inhibition of current responses to 10 μM glycine” value in experiment [8] (100 μM compound) turned out to be 55 ± 3.1%.

(Values after PMC3865070 (Neuropharmacology, 2013).)
